Reference: patent US8568969B2, “RBP4 in insulin sensitivity/resistance, diabetes, and obesity” (Beth Israel Deaconess Medical Center, Inc., priority 2003, dated 2013)

Assays:
[1] = molecular target: T1, serum RBP4 (Mus musculus, UniProt Q00724); experiment: Serum RBP4 levels (immunoblot) in mice fed high fat diet with fenretinide; type: in vivo; conditions: oral, 0.04% fenretinide in high fat diet, FVB mice
T1 construct: from tissue; host or cells: mouse serum (FVB and AG4KO mice)
Procedure: Serum or plasma RBP4 was measured by diluting the serum or plasma 20 times in a standard detergent-containing buffer, separated by 15% SDS-PAGE, and transferred to nitrocellulose (Kim, Y. B., et al. Diabetes 48:310-320 (1999)). Mouse RBP4 and human RBP4 were detected using anti-rat or anti-human (DAKO, Germany) polyclonal antisera, respectively, followed by standard ECL detection.
(§1) To determine the effect of RBP4 independently of transgenic manipulation, adult FVB mice were treated with fenretinide (4-hydroxyphenyl retinamide, 4-HPR), a synthetic retinoid originally designed for cancer therapy. […] Three-week old male FVB mice received chow diet, high fat diet or high fat diet supplemented with 0.04% fenretinide. Fenretinide gel capsules were emptied and added directly to the fat soluble vitamin component of the Harlan-Teklad laboratory high fat diet in at the time of diet preparation. Light exposure was minimized during fenretinide high fat diet preparation. Fenretinide high fat diet was stored in the dark at 4° C. and were placed in mouse cages at 2-3 day intervals. […] Thus, both genetic and pharmacological interventions that decrease RBP4 levels improve insulin sensitivity even in obesity.

[2] = system: obese mice on a high fat diet (HFD); experiment: Insulin tolerance test (ITT) in mice on high fat diet; type: in vivo, mouse; conditions: HFD with 0.04% fenretinide, 15 weeks of treatment, 1.1 U/kg insulin
Procedure: (§2) Plasma glucose was measured by glucometer (One Touch Ultra, Lifescan). Insulin (crystal chemical), FFAs (Wako) and adipokines (leptin, adiponectin, and resistin) (LINCO research) were measured using commercially available kits. ITT was performed by i.p. injection of recombinant regular human insulin 3-4 hours after food removal. Different insulin doses were used for different mouse lines and ages as described. GTT was performed by i.p. injection of glucose (1 or 2 g D-glucose per kg body weight) after overnight fasting.
as §1

[3] = system: obese mice on a high fat diet (HFD); experiment: Glucose tolerance test (GTT) in mice on high fat diet; type: in vivo, mouse; conditions: HFD with 0.04% fenretinide for 16 weeks, 2 g/kg glucose
Procedure: as §2, §1

[4] = Food intake, body weight and obesity on high fat diet; type: in vivo, mouse; conditions: 0.04% fenretinide in high fat diet, FVB mice
Procedure: as §1

[5] = system: ob/ob mice; experiment: IPGTT in ob/ob mice treated with fenretinide; type: in vivo, mouse
Procedure: IPGTT (2 mg/g body weight) was performed on mice (12 weeks old) after 8 weeks of diet/treatment (FIG. 26A). Plasma glucose was measured at the indicated times; the open circles represent ob/+, the closed circles represent ob/ob mice and the open squares represent ob/ob mice treated with fenretinide.
IPGTT (1 mg/g body weight) was performed on mice (42 weeks old). After 38 weeks of diet/treatment (FIG. 26B), plasma glucose was measured at the indicated times; the closed squares are ob/+, the closed circles are ob/+ mice treated with fenretinide; open squares are ob/ob and open circles are ob/ob treated with fenretinide.

[6] = system: ob/ob mice; experiment: Long-term mortality of ob/ob mice; type: in vivo, mouse; conditions: 10 months of treatment, compared to untreated controls
Text: The ob/ob mice at 10 months of age were severely obese.

[7] = system: RXR isoforms; conditions: in vitro; cited from earlier work
[8] = molecular target: RBP4 with TTR (Homo sapiens, UniProt P02753); conditions: cited from earlier work

For CC1=C(/C=C/C(C)=C/C=C/C(C)=C/C(=O)Nc2ccc(O)cc2)C(C)(C)CCC1 [fenretinide, 4-hydroxyphenyl retinamide], which “serum RBP4 levels” value [1] is on record?
Its value is “lowered serum RBP4 levels in obese mice on a high fat diet (HFD) to the level of non-obese control mice on a chow diet”.

What about the “insulin sensitivity (ITT)” value [2] of the same compound?
The value was “improved insulin sensitivity”.

And the “glucose tolerance (GTT)” value [3]?
Its value is “normalized glucose tolerance”.

And the body weight [4]?
Its body weight is “did not affect”.

And the “development of obesity on the high fat diet” value [4]?
Its value is “did not affect”.

What about the food intake [4] of the same compound?
Its food intake is “did not affect”.

What about the “glucose tolerance (IPGTT)” value ([5]; ob/ob mice 12 weeks old, 8 weeks of treatment, 2 mg/g body weight) of the same compound?
The value was “greatly improved their glucose tolerance”.

What about the “glucose disposal (IPGTT)” value ([5]; ob/ob mice 42 weeks old, 38 weeks of treatment, 1 mg/g body weight) of the same compound?
The value was “improve glucosed disposal to nearly that of heterozygous mice”.

What about the long term mortality [6] of the same compound?
The long term mortality was “reduced by almost half”.

What about the “activation of RXR isoforms” value [7] of the same compound?
Its value is “does not activate”.

What about the “interaction of RBP4 with TTR” value [8] of the same compound?
The value was “disrupts the interaction of RBP4 with TTR”.
